The target in data set [1] is T1, AtDHDPR2 (dihydrodipicolinate reductase 2) (Arabidopsis thaliana, UniProt Q8LB01).
T1 construct: gene DAPB2; excludes the 53-amino-acid chloroplast transit peptide; tag cleaved
T1 sequence (Q8LB01 54-349): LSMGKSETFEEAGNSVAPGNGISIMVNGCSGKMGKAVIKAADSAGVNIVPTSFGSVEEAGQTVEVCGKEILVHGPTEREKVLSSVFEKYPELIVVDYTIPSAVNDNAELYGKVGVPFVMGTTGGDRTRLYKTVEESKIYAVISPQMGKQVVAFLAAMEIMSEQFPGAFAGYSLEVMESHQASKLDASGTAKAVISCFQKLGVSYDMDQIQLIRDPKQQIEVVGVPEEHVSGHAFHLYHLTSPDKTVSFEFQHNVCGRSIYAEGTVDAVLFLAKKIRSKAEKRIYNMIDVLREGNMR
In words: DHDPS-DHDPR coupled spectrophotometric assay (NADPH oxidation, […] nm). The class given is biochemical.

The target in data set [2] is T2, AtDHDPR1 (dihydrodipicolinate reductase 1) (Arabidopsis thaliana, UniProt O80574).
T2 construct: gene DAPB1; excludes the first 51 amino acids (chloroplast transit peptide); tag cleaved
T2 sequence (O80574 52-347): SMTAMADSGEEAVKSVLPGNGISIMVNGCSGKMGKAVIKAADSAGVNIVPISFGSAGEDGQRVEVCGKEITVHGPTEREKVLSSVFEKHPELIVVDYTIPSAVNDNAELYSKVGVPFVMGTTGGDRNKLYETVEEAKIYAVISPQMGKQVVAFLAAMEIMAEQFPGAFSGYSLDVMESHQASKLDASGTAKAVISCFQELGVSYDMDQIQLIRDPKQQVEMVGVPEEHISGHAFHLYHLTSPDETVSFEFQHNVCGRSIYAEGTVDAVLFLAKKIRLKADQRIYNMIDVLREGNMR
The data set is described as above. The class given is biochemical.

Substrate in data set [3]: NC(=O)C1=CN([C@@H]2O[C@H](COP(=O)(O)OP(=O)(O)OC[C@H]3O[C@@H](n4cnc5c(N)ncnc54)[C@H](OP(=O)(O)O)[C@@H]3O)[C@@H](O)[C@H]2O)C=CC1
In words: purified protein. Conditions: varied: cofactor.

Substrate in data set [4]: O=C(O)C1=NC(C(=O)O)CC=C1
Description: purified protein. Conditions: NADPH.

As a reminder, the IC50 is the concentration at which inhibition is half-maximal. Read a high IC50 as weaker potency. As a reminder, the Km is the concentration of substrate that gives half-maximal velocity.

Turning to `O=C(O)c1cccc(C(=O)O)n1` [2,6-PDC, 2,6-pyridinedicarboxylic acid], the IC50 is 470 µM in data set [1] and 140 µM in data set [2].

B1: AtDHDPR1 (dihydrodipicolinate reductase 1) (Arabidopsis thaliana) (protein)
chain: T2 sequence (O80574 52-347)
On to B1, for which the Km in “purified protein [3]” came to 16 ± 2.6 µM; in “purified protein [4]”, 37 ± 6.5 µM.
